Measured values from patent US4374845A, “1-(7-Carboxy-2-octynyl)imidazole derivatives, pharmaceutical compositions and use” (Kissei Pharmaceutical Co., priority 1980, dated 1983).
Counter-ions that a name gives are not always drawn.

Target: T1, thromboxane synthetase from rabbit platelet microsomes (Oryctolagus cuniculus, UniProt G1TAZ9)
T1 construct: thromboxane synthetase from rabbit platelet microsomes; from tissue; host or cells: rabbit platelet microsomes
T1 sequence (G1TAZ9 1-530): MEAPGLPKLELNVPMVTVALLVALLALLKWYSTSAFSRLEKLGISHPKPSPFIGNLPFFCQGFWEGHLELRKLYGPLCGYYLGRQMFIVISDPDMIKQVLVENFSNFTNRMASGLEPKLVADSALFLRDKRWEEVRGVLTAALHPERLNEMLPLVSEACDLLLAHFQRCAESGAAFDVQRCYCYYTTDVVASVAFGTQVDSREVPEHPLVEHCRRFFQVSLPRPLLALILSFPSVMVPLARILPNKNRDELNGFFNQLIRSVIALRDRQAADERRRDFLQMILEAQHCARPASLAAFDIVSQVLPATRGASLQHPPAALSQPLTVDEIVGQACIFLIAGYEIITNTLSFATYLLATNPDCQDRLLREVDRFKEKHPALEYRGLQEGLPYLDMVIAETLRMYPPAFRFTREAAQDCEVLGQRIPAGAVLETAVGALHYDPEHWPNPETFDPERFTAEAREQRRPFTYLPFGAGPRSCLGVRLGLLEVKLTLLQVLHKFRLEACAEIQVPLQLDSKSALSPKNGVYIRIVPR
Assay: inhibition of thromboxane synthetase from rabbit platelet microsomes
Assay type: biochemical
Settings: standard laboratory tests, read-out: molar concentration producing 50% inhibition of thromboxane synthetase
From the text: For example, in standard laboratory tests, 1-(7-carboxy-7-methyl-2-octynyl)imidazole hydrochloride produce a 50% inhibition of thromboxane synthetase from rabbit platelet microsomes at the molar concentrations of 9×10^-9.

`CC(C)(CCCC#CCn1ccnc1)C(=O)O` [Example 2, 1-(7-carboxy-7-methyl-2-octynyl)imidazole hydrochloride] was tested, and the IC50 was 9 nM.
